Series [1] relates to melanoma cell lines Malme-3M, A375, G361, SK-Mel-2, SK-Mel-5, and SK-Mel-28. Briefly: Time course of cell survival (flow cytometry). The series is classed as cell-based, human. On the procedure: The time course of cell survival in melanoma cell lines (Malme-3M, A375, G361, SK-Mel-2, SK-Mel-5, and SK-Mel-28) after administration of small molecule compound FN1-8 was analyzed. These melanoma cells were incubated with 10 μM or 20 μM FN1-8. Then flow cytometry was used to examine the percentage of living and dead cells at different time points. […] (FIGS. 18A, B, and C, and data not shown).
For orientation: Flow cytometry measures light scatter and fluorescence of single cells or particles in a stream.

Series [2] has as its system human normal skin fibroblast cells (Malme-3). Briefly: Time course of cell survival (flow cytometry). It counts as cell-based. The conditions noted are these: 10 μM or 20 μM, after 6 days. As to the method: To investigate whether small molecule compounds of the present invention, e.g., FN1-8, specifically kill cancer cells, time course experiments of cell survival after administration of 10 μM and 20 μM of FN1-8 were also conducted using human normal skin fibroblast cells (Malme-3).

Series [3] deals with melanoma cell lines A375, G361, SK-Mel-2, SK-Mel-5, and SK-Mel-28. Briefly: Dose titration, cell killing. The series is classed as cell-based, human. The conditions noted are these: A375, 2-40 μM tested, 3 days; similar effect in G361, SK-Mel-2, SK-Mel-5, SK-Mel-28. As to the method: (§1) Typically, the small molecule compounds of the present invention were dissolved in DMSO at a concentration of 30 mM. The small molecule compounds were then tested under cell culture conditions at different concentrations ranging from 0, 10, 30, 50, to 100 uM. To determine cell survival after treatment, the cells were incubated with the small molecule compounds in 6-well plates for about 3 days. After removal of the cell culture medium, 1-ml of 0.5% crystal violet solution (prepared in 20% ethanol and 20% methanol) was added to stain the cells for 5 min. Then the crystal violet solution was rinsed clean with tap water. Cell survival was estimated based on the density of crystal stained plates.
Dose titration experiments of small molecule compound FN1-8 was performed using the melanoma cell lines A375, G361, SK-Mel-2, SK-Mel-5, and SK-Mel-28. A 375 cells were plated in 6-well plates and incubated with DM SO (control) or 2 μM, 5 μM, 10 μM, 20 μM, and 40 μM of FN1-8, respectively, for 3 days. A dramatic and dose-dependent cell killing in this cell line was observed when FN1-8 was added at 10 μM or more (data not shown). […]

Series [4] concerns Dvl-3 and cytosolic β-catenin in HT29 tumor. Briefly: Western blot of cytosolic proteins from xenograft tumors. It counts as in vivo, mouse. The conditions noted are these: HT29 xenograft tumor (negative control). On the procedure:
(§2) To examine whether the lead compound FN1-8 suppressed tumor growth through inhibition of the Wnt signaling pathway in vivo, Western blot analysis of cytosolic proteins isolated from the H460 and HT29 xenograft tumors was performed. GAPDH served as a control. This Western Blot analysis was performed using a “pooled” tumor from two randomly selected mice of each group with reasonable size tumors.
(A western blot detects proteins with antibodies after separation by electrophoresis.)

The test system of series [5] is Dvl-3 and cytosolic beta-catenin in H460 tumor. The series is described as above. It counts as in vivo, mouse. As to the method:
as §2

Series [6] has as its system NSCLC cell lines H1299 and A549, colon cancer cell lines SW480 and HCT116. Briefly: Cell survival assay (crystal violet), initial screening. The conditions noted are these: 100 μM, all cancer cell lines tested. The series is classed as cell-based, human. On the procedure: as §1
Initial screening of small molecule compounds of the present invention was performed using the cell-based assays described herein. […] Two NSCLC cell lines, H1299 and A549, and two colon cancer cell lines, SW480 and HCT116, were incubated with small molecule compounds FN1-1, FN1-2, FN1-3; FN1-5 and FN2-1 at a concentration of 100 μM. DMSO was used as a control. […] This assay identified the small molecule compound FN1-5 inhibiting GLI transcription activation domain (TAF-binding domain, TAFbd), as an active hit compound.

Series [7] in a line: Pharmacokinetic analysis in mice (oral administration). It counts as in vivo, mouse. As to the method: In another pharmacokinetic study, three mice were orally administrated with the small molecule compound FN1-5 at the dose of 30 mg/kg body weight. Then, as described above, plasma was collected from the tail-vein of each mouse and the concentration of FN1-5 in each plasma sample was determined by mass spectroscopy.
Similarly, the pharmacokinetic properties of orally administered small molecule compound FN1-8 were analyzed (FIG. 22B). Comparing the uptake of FN1-8 to FN1-5, the uptake of FN1-5 after oral administration seems to be better, by about 7 fold.

Each structure is given as a SMILES string. Where only a bound is given, the exact number is not on record here.

Consider `O=C(NCCc1ccc(O)cc1)C1C(c2ccccc2)=NN(c2ccccc2)C1c1ccccc1` (stereo not shown) [FN1-8, N-(2-(4-Hydroxyphenyl)ethyl)-1,3,5-triphenyl-4,5-dihydro-pyrazole-4-carboxyamide], for which the “time after which cell killing effect was apparent” value in series [1] (20 μM, all tested melanoma cells) turned out to be 2 days. Besides, in series [1] (Malme-3M, A375, SK-Mel-5 (FIG. 14)), the “apoptosis in time course experiment” value was “induces significant apoptosis”. For the same compound, in series [2], the “cell killing in normal cells” value was “no cell killing”. Moreover, in series [3], the “concentration at which dramatic and dose-dependent cell killing was observed” value was not below 10 µM. In addition, the “Dvl-3 and cytosolic β-catenin levels in tumor” value in series [4] is on record as “no noticeable changes”. Moreover, the “Dvl-3 and cytosolic beta-catenin expression in tumor” value in series [5] is “down-regulated”.

Regarding `O=C(NCCCCCO)C1C(c2ccccc2)=NN(c2ccccc2)C1c1ccccc1` (stereo not shown) [FN1-5, N-(5-Hydroxypentyl)-1,3,5-triphenyl-4,5-dihydro-pyrazole-4-carboxyamide], the cell killing effect result in series [6] is recorded as “dramatic cell killing effect”. In addition, the “uptake of FN1-5 relative to FN1-8” value in series [7] (oral administration) is recorded as “about 7 fold”. Also, in series [7] (oral, 30 mg/kg), the “time of uptake into plasma” value was not above 10 min and the “time within which plasma concentration diminishes” value was not above 24 h.

The values above are taken from patent publication US7714014B2, “Targeting GLI proteins in human cancer by small molecules” (The Regents of the University of California, priority 2005, dated 2010).
